Patent publication US20260374766A1, “METHODS FOR TREATING CANCER” (Antares Therapeutics, Inc., priority 2022, published 2026)
Read-outs that look alike come from different tables or passages of the source.

Key:
[1] = biological target: T1, p53 Y220C mutant protein (amino acid residues 94-293) (Homo sapiens, UniProt P04637, Y220C); assay: Surface Plasmon Resonance (SPR) assay, Kd_kinetic; format: binding; details: read-out: SPR P53 Y220C KD kinetic
T1 construct: p53 Y220C mutant protein (amino acid residues 94-293)
Outline: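 Kinetic dissociation constants derived by 1:1 model fit of SPR data acquired at 16 or 20 °C, pH 7.5 Tris/NaCl running buffer with 1% DMSO.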

[2] = biological target: T1, p53 Y220C mutant protein (amino acid residues 94-293); assay: Thermal Shift Assay (TSA), dTM; format: binding; details: thermal shift; for ΔTm at 10 µM: 10 uM compound, read-out: TSA P53 Y220C dTM (10 uM); for ΔTm at 100 µM: 100 uM compound, read-out: TSA P53 Y220C dTM (100 uM)
Outline: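 5 μM protein + 10 μM or 100 μM cpd, 3 h, 20 °C; 20 mM HEPES pH7.4, 100 mM NaCl, 0.01% Pluronic F-127, 1% DMSO, Sypro Orange 400-fold dil. Ramp 30→50 °C, 0.03 °C/s. TM by Boltzmann two-state fit.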

NUGC3 p53 Y220C = assay: Cell Proliferation Assay (CellTiter-Glo, CTG), NUGC3 p53 Y220C; format: cell-based; details: Homo sapiens, NUGC-3, 120 h, CellTiter-Glo, NUGC3 p53 Y220C, 5 days
Outline: (§1)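 Tet-One inducible p53 Y220C or R273H constructs were stably introduced into NCI-H1299 by lentiviral transduction; NUGC3 was used as is. Cells (250-500 per well) were exposed to compound for 5 days, then CellTiter-Glo was added for 10 min at room temperature and IC50 was calculated from luminescence.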

H1299 p53 Y220C = assay: Cell Proliferation Assay (CellTiter-Glo, CTG), H1299 p53 Y220C (NClH1299-inducible p53 Y220C); format: cell-based; details: Homo sapiens, NCI-H1299, 120 h, CellTiter-Glo, H1299 p53 Y220C, 5 days
Outline: as §1

H1299 p53 R273H = assay: Cell Proliferation Assay (CellTiter-Glo, CTG), H1299 p53 R273H (NClH1299-inducible p53 R273H); format: cell-based; details: Homo sapiens, NCI-H1299, 120 h, CellTiter-Glo, H1299 p53 R273H, 5 days
Outline: as §1

p53 Y220C = p53 Y220C (Homo sapiens, UniProt P04637, Y220C); assay: Luciferase Reporter Assay (Luc), p53 response element, NClH1299 cells with inducible p53 Y220C; format: cell-based; details: luciferase reporter, NClH1299 inducible p53 Y220C, 6 hour; for Emax: 10 uM tool compound as positive control; for AC50: read-out: Luc P53 Y220C AC50
Outline: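 Steps: seed 5,000 cells/well; induce mutant p53 with 0.5 ug/mL doxycycline for 24 h; treat with compound 6 h; add equal volume One-Glo, shake 5 min at room temperature; measure luciferase immediately.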

Row | SMILES | Kd ([1]; SPR, kinetic KD, p53 Y220C) [nM] | ΔTm at 10 µM [2] [°C] | ΔTm at 100 µM [2] [°C] | IC50 (H1299 p53 Y220C) [nM] | IC50 (H1299 p53 R273H) [nM] | Emax (p53 Y220C) [%] | AC50 (p53 Y220C) [nM] | Kd [1] [nM] | IC50 (NUGC3 p53 Y220C) [nM]
1 | COc1cc2c(cc1NCC#Cc1nc3c(N[C@@H]4CCN(C)C[C@@H]4F)cccn3c1CC(F)(F)F)CCNC2=O [Example 110, 6-{[3-(8-{[(3S,4R)-3-fluoro-1-methylpiperidin-4-yl]amino}-3-(2,2,2-trifluoroethyl)imidazo[1,2-a]pyridin-2-yl)prop-2-yn-1-yl]amino}-7-methoxy-3,4-dihydro-2H-isoquinolin-1-one] | < 10 | – | ≥ 10 | < 750 | 5000 to 8000 | 80 to 90 | < 750 | – | < 750
2 | CNC(=O)c1cc(OC)c(NCC#Cc2nc3c(N[C@@H]4CCN(C)C[C@@H]4F)cccn3c2CC(F)(F)F)cc1Cl [Example 111, 2-chloro-4-{[3-(8-{[(3S,4R)-3-fluoro-1-methylpiperidin-4-yl]amino}-3-(2,2,2-trifluoroethyl)imidazo[1,2-a]pyridin-2-yl)prop-2-yn-1-yl]amino}-5-methoxy-N-methylbenzamide] | < 10 | – | ≥ 10 | 750 to 1500 | ≥ 10000 | > 90 | 750 to 1500 | – | 750 to 1500
3 | COCCN1CCC(Nc2cccn3c(CC(F)(F)F)c(C#CCNc4ccc(S(C)(=O)=O)cc4OC)nc23)CC1 [Example 113, N-(2-{3-[(4-methanesulfonyl-2-methoxyphenyl)amino]prop-1-yn-1-yl}-3-(2,2,2-trifluoroethyl)imidazo[1,2-a]pyridin-8-yl)-1-(2-methoxyethyl)piperidin-4-amine] | 10 to 100 | – | ≥ 10 | 750 to 1500 | 5000 to 8000 | < 70 | 1500 to 3000 | – | 750 to 1500
4 | CNC(=O)N1CCC(Nc2cccn3c(CC(F)(F)F)c(C#CCNc4ccc(S(C)(=O)=O)cc4OC)nc23)CC1 [Example 117, 4-[(2-{3-[(4-methanesulfonyl-2-methoxyphenyl)amino]prop-1-yn-1-yl}-3-(2,2,2-trifluoroethyl)imidazo[1,2-a]pyridin-8-yl)amino]-N-methylpiperidine-1-carboxamide] | 10 to 100 | – | 5 to 10 | > 3000 | ≥ 10000 | 70 to 80 | > 3000 | – | > 3000
5 | CNC(=O)c1ccc(NCC#Cc2nn3c(N[C@@H]4CCN(C)C[C@@H]4F)cccc3c2CC(F)(F)F)c(OC)c1 [Example 118] | 10 to 100 | – | 5 to 10 | 1500 to 3000 | ≥ 10000 | 70 to 80 | 1500 to 3000 | – | 1500 to 3000
6 | COc1cc(C(=O)N2CCOCC2)ccc1NCC#Cc1nc2c(N[C@@H]3CCN(C)C[C@@H]3F)cccn2c1SC(F)(F)F [Example 119] | – | ≥ 10 | ≥ 10 | < 750 | ≥ 10000 | 80 to 90 | < 750 | < 10 | < 750
7 | CNC(=O)c1cc(OC)c(NCC#Cc2nc3c(N[C@@H]4CCN(C)C[C@@H]4F)cccn3c2SC(F)(F)F)cc1Cl [Example 121] | < 10 | ≥ 10 | ≥ 10 | < 750 | 8000 to 10000 | > 90 | < 750 | – | < 750
8 | CNC(=O)c1ccc(OC)c(NCC#Cc2cc3c(N[C@@H]4CCNC[C@@H]4F)cccn3c2SC(F)(F)F)c1 [Example 125, 3-{[3-(8-{[(3S,4R)-3-fluoropiperidin-4-yl]amino}-3-[(trifluoromethyl)sulfanyl]indolizin-2-yl)prop-2-yn-1-yl]amino}-4-methoxy-N-methylbenzamide] | < 10 | ≥ 10 | – | < 750 | 5000 to 8000 | > 90 | < 750 | – | < 750

Second part, led by results:

Row | Kd ([1]; SPR, kinetic KD, p53 Y220C) [nM] | ΔTm at 10 µM [2] [°C] | ΔTm at 100 µM [2] [°C] | IC50 (H1299 p53 Y220C) [nM] | IC50 (H1299 p53 R273H) [nM] | Emax (p53 Y220C) [%] | AC50 (p53 Y220C) [nM] | Kd [1] [nM] | SMILES | IC50 (NUGC3 p53 Y220C) [nM]
9 | < 10 | ≥ 10 | ≥ 10 | < 750 | 8000 to 10000 | 80 to 90 | < 750 | – | COc1ccc(C(=O)NC2CC2)cc1NCC#Cc1nc2c(N[C@@H]3CCN(C)C[C@@H]3F)cccn2c1SC(F)(F)F [Example 109, N-cyclopropyl-3-{[3-(8-{[(3S,4R)-3-fluoro-1-methylpiperidin-4-yl]amino}-3-[(trifluoromethyl)sulfanyl]imidazo[1,2-a]pyridin-2-yl)prop-2-yn-1-yl]amino}-4-methoxybenzamide] | < 750
10 | 100 to 1000 | – | 5 to 10 | > 3000 | ≥ 10000 | 70 to 80 | > 3000 | – | CN1CC[C@@H](Nc2cccn3c(CC(F)(F)F)c(C#CCNc4ccccc4)nc23)[C@@H](F)C1 [Example 112, (3S,4R)-3-fluoro-1-methyl-N-{2-[3-(phenylamino)prop-1-yn-1-yl]-3-(2,2,2-trifluoroethyl)imidazo[1,2-a]pyridin-8-yl}piperidin-4-amine] | > 3000
11 | 10 to 100 | – | ≥ 10 | > 3000 | 5000 to 8000 | 70 to 80 | > 3000 | – | COc1cc(S(C)(=O)=O)ccc1NCC#Cc1nc2c(NC3CC4(C3)CN(C)C4)cccn2c1CC(F)(F)F [Example 114, N-(2-{3-[(4-methanesulfonyl-2-methoxyphenyl)amino]prop-1-yn-1-yl}-3-(2,2,2-trifluoroethyl)imidazo[1,2-a]pyridin-8-yl)-2-methyl-2-azaspiro[3.3]heptan-6-amine] | 1500 to 3000
12 | 100 to 1000 | – | 5 to 10 | > 3000 | ≥ 10000 | < 70 | > 3000 | – | COc1cc(S(C)(=O)=O)ccc1NCC#Cc1nc2c(NC3CC4(COC4)C3)cccn2c1CC(F)(F)F [Example 115, 2-{3-[(4-methanesulfonyl-2-methoxyphenyl)amino]prop-1-yn-1-yl}-N-{2-oxaspiro[3.3]heptan-6-yl}-3-(2,2,2-trifluoroethyl)imidazo[1,2-a]pyridin-8-amine] | > 3000
13 | 100 to 1000 | – | 5 to 10 | > 3000 | ≥ 10000 | < 70 | > 3000 | – | COC(=O)N1CCC(Nc2cccn3c(CC(F)(F)F)c(C#CCNc4ccc(S(C)(=O)=O)cc4OC)nc23)CC1 [Example 116, methyl 4-[(2-{3-[(4-methanesulfonyl-2-methoxyphenyl)amino]prop-1-yn-1-yl}-3-(2,2,2-trifluoroethyl)imidazo[1,2-a]pyridin-8-yl)amino]piperidine-1-carboxylate] | > 3000
14 | < 10 | ≥ 10 | ≥ 10 | < 750 | 5000 to 8000 | 80 to 90 | < 750 | – | CNC(=O)c1ccc(NCC#Cc2nc3c(N[C@@H]4C[C@H]5CC[C@@H]([C@@H]4F)N5C)cccn3c2SC(F)(F)F)c(OC)c1 [Example 122] | < 750
15 | < 10 | ≥ 10 | – | < 750 | ≥ 10000 | > 90 | < 750 | – | CNC(=O)c1ccc(O)c(NCC#Cc2cc3c(N[C@@H]4CCN(C)C[C@@H]4F)nccn3c2SC(F)(F)F)c1 [Example 123] | < 750
16 | < 10 | ≥ 10 | – | < 750 | 5000 to 8000 | > 90 | < 750 | – | CNC(=O)c1ccc(OC)c(NCC#Cc2cc3c(N[C@@H]4CCN(C)C[C@@H]4F)cccn3c2SC(F)(F)F)c1 [Example 124, 3-{[3-(8-{[(3S,4R)-3-fluoro-1-methylpiperidin-4-yl]amino}-3-[(trifluoromethyl)sulfanyl]indolizin-2-yl)prop-2-yn-1-yl]amino}-4-methoxy-N-methylbenzamide] | < 750
17 | < 10 | ≥ 10 | – | < 750 | 8000 to 10000 | > 90 | < 750 | – | CNC(=O)c1ccc(NCC#Cc2cc3c(N[C@@H]4CCN(C)C[C@@H]4F)cccn3c2SC(F)(F)F)c(OC)c1 [Example 126, 4-{[3-(8-{[(3S,4R)-3-fluoro-1-methylpiperidin-4-yl]amino}-3-[(trifluoromethyl)sulfanyl]indolizin-2-yl)prop-2-yn-1-yl]amino}-3-methoxy-N-methylbenzamide] | < 750
